Assay results as given in publication PMC8824275, “Gastrointestinal Stability and Cytotoxicity of Bacteriocins From Gram-Positive and Gram-Negative Bacteria: A Comparative in vitro Study” (Frontiers in Microbiology, 2022).
≈ marks a conversion by molar mass, not a printed value. Like-named read-outs stand apart in the source and are kept apart here.

How the values were obtained:
L. ivanovii HPB 28 = assay type: cell-based, Listeria ivanovii; conditions: for Total activity: broth microdilution
Excerpt: Microcin J25 was produced by Escherichia coli MC4100 carrying the plasmid PTUC 202 ([Solbiati et al., 1999]). For the antibacterial activity of pure compounds and digestion mixture, Listeria ivanovii HPB28 (Canada Health Protection Branch) was used as indicator strain for nisin and pediocin PA-1, while Staphylococcus aureus ATCC 6538 (ATCC) and Salmonella enterica subsp. enterica serovar Newport ATCC 6962 (later referred to as S. Newport, ATCC) were used as indicator strains for bactofencin A (M14L, M18L) and microcin J25, respectively. L. ivanovii HPB28 and S. aureus were cultured in Tryptic Soy (Difco Laboratories, Spark, MD, United States) supplemented with 0.6% yeast extract (TSBYE), at 30 and 37°C, respectively. S. Newport was cultured at 37°C overnight in Luria-Bertani (LB) (Difco Laboratories, Spark, MD, United States). All strains were maintained at –80°C as stock cultures in their corresponding culture media supplemented with 20% glycerol, and propagated twice at 24 h intervals before use.
Quantitative determination of inhibitory activity of bacteriocins was carried out using the broth microdilution method as described by [Ben Said et al. (2020)]. Two-fold serial dilutions of bacteriocins (125 μL) were prepared in an appropriate medium in a clear 96-well flat-bottom microtiter plate. Indicator strains were diluted to 10^5 CFU/mL, from which 50 μL were added to each well. The microtiter plates were incubated for 24 h under appropriate conditions, and optical densities were recorded at 595 nm (Infinite M200, Tecan, Switzerland). Control wells contained untreated culture and appropriate medium (blanks). The number of inhibition wells was noted and inhibition activities were calculated in μg/mL.

Caco-2 cells = experiment: LDH release assay (membrane integrity); assay type: cell-based, human; conditions: Caco-2, CytoTox-ONE LDH release, 0.4 to 400 μg/mL, 24 h (method: 48 h), 37°C, mean of three experiments
Protocol: The human colonic adenocarcinoma (Caco-2) cells were purchased from ATCC. Cells were cultured in DMEM medium in a humidified atmosphere containing 5% CO2 at 37°C. For the LDH release assay, cells were seeded in 96 well flat bottom culture plates (1 × 10^4 cells/well). Caco-2 cells, which have been frequently used for permeability studies across the intestinal epithelium, were selected in this study for evaluating the cytotoxicity of bacteriocins and their interaction with intestinal epithelium during GI transit to determine their cytotoxicity.
The CytoTox-ONE™ cytotoxicity assay kit (Promega, United States) was used to measure the LDH release. […] Lysis solution (Promega) was added in a 1:1 ratio to selected control wells to induce the maximal release of LDH and the plate was incubated for 5 min. […] Finally, stop solution was then added to each well, and absorbance was measured using a spectrophotometer (Tecan Spark 20M, Morrisville, NC, United States) at excitation/emission wavelengths of 560/590 nm. Each compound-treated value was blanked with the values of the control-treated cells and cytotoxicity was expressed as percentage of the maximal LDH release (lysis solution treated cells), calculated by the following formula: […]

rat erythrocytes = experiment: Hemolytic activity; assay type: cell-based; conditions: 45 min, 37°C
Protocol: The experiment was performed after prior approval from the local ethics committee by TransBIOTech laboratory. Hemolytic potential of bacteriocins was evaluated according to [FDA (2005)]. Rat blood was collected into a heparinized tube and added in a 1:1 volume (100 μL) to serially diluted compounds (in 100 μL PBS), in a conical 96-well plate. 10% Triton X-100 and PBS were used as a positive and negative controls, respectively. The plates were sealed and incubated for 45 min at 37°C prior to centrifugation at 2,000 g for 10 min to pellet red blood cells. The supernatant was then transferred into clear 96-well plates and the absorbance was read at 540 nm (hemoglobin). The percentage of hemolysis was calculated as follow, with RBC standing for red blood cells:
%Hemolysis=AbsorbanceofRBCtreatedwithbacteriocins-AbsorbanceofRBCtreatedwithPBS/AbsorbanceofRBCtreatedwithTritonX100-AbsorbanceofRBCtreatedwithPBS

Structure (SMILES): C=C(NC(=O)[C@@H](NC(=O)[C@H](Cc1c[nH]cn1)NC(=O)[C@@H](NC(=O)[C@H](CO)NC(=O)[C@@H]1CS[C@@H](C)[C@H]2NC(=O)[C@H](C)NC(=O)[C@H](NC(=O)[C@H](CCCCN)NC(=O)[C@H](CCSC)NC(=O)[C@H](CC(N)=O)NC(=O)[C@@H]3CS[C@@H](C)[C@@H](NC(=O)[C@H](CCCCN)NC(=O)[C@@H]4CS[C@@H](C)[C@@H](NC(=O)[C@@H]5CSC[C@@H](NC(=O)/C(=C/C)NC(=O)[C@@H](N)[C@@H](C)CC)C(=O)N[C@@H]([C@@H](C)CC)C(=O)NC(=C)C(=O)N[C@@H](CC(C)C)C(=O)N5)C(=O)N5CCC[C@H]5C(=O)NCC(=O)N4)C(=O)NCC(=O)N[C@@H](C)C(=O)N[C@@H](CC(C)C)C(=O)N[C@@H](CCSC)C(=O)NCC(=O)N3)[C@H](C)SC[C@H](NC2=O)C(=O)N[C@@H](CC(N)=O)C(=O)N1)[C@@H](C)CC)C(C)C)C(=O)N[C@@H](CCCCN)C(=O)O [nisin Z]
- Total activity (L. ivanovii HPB 28; after gastric conditions (SGF, pepsin 2000 U/mL, lipase 60 U/mL, pH 3, 90 min, 37°C)): 3.12 AU/mL
- Total activity (L. ivanovii HPB 28; after oral conditions (SSF, 2 min, 37°C)): 3.12 AU/mL
- Total activity (L. ivanovii HPB 28; after small intestinal conditions (SIF, bile salt 10 mmol/L, pancreatin 100 U/mL, pH 7, 2 h, 37°C)): 200 AU/mL
- MIC (L. ivanovii HPB 28; against L. ivanovii): 1.65 µg/mL (≈ 0.495 µM)
- Total activity (L. ivanovii HPB 28; pure compound without GI digestion, 24 h, OD 595 nm): 3.12 AU/mL
- Membrane integrity (LDH release) (Caco-2 cells): uncompromised
- Concentration above which dose-dependent increase in percentage of hemolysis was shown (rat erythrocytes; 0.4 to 400 μg/mL): higher than 50 μg/mL
- Hemolysis (rat erythrocytes; at concentrations close to 400 μg/mL): approximately 100%
